Measured values taken from ChEMBL document CHEMBL5634097, “A review: FDA-approved fluorine-containing small molecules from 2015 to 2022” (Eur J Med Chem, 2023).

Columns and labels:
[1] = target: Dual specificity mitogen-activated protein kinase kinase; MEK1/2 (Homo sapiens, UniProt P36507+Q02750); assay: Inhibition of MEK1/2 (unknown origin); format: protein assay
[2] = target: Spike glycoprotein (Severe acute respiratory syndrome coronavirus 2) (UniProt P0DTC2); assay: Binding affinity to SARS-Cov-2 Spike protein
[3] = target: Replicase polyprotein 1ab (Severe acute respiratory syndrome coronavirus 2) (UniProt P0DTD1); assay: Binding affinity to SARS-Cov-2 PLpro
[4] = target: Replicase polyprotein 1ab (Severe acute respiratory syndrome coronavirus 2) (UniProt P0DTD1); assay: Binding affinity to SARS-Cov-2 Main protease
[5] = Half life in rat; format: ADME; settings: in vivo
[6] = Half life in dog; format: ADME, Canis lupus familiaris; settings: in vivo
[7] = Inhibition of CGRP (unknown origin); design: species or system Homo sapiens

In the case of `Cn1cnc2c(F)c(Nc3ccc(Br)cc3F)c(C(=O)NOCCO)cc21` [BINIMETINIB], the IC50 [1] is reported as 12 nM.

`CNC(=O)c1ccc(-c2cnc3ncc(Cc4ccc5ncccc5c4)n3n2)cc1F` gave a K [2] of -7.7 kcal/mol, a K [3] of -7.7 kcal/mol and a K [4] of -9.3 kcal/mol.

In the case of `CN1CCN2c3c(cccc31)[C@@H]1CN(CCCC(=O)c3ccc(F)cc3)CC[C@@H]12` [LUMATEPERONE], the half-life [5] is reported as no more than 30 h, the half-life [6] is reported as no more than 30 h and the IC50 [7] is reported as 0.14 nM.
